Type in all cases: binding
The target in experiment [1] is T1, human islet amyloid polypeptide (wt hIAPP) (Homo sapiens, UniProt P10997).
T1 construct: gene IAPP; 37-residue synthetic peptide, amidated C-terminus, Cys-2/Cys-7 disulfide, monomeric
T1 sequence (P10997 34-70 limits assumed): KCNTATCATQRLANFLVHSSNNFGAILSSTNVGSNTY
Kind of experiment: Tyr37 fluorescence quenching titration; also SPR (Kd […]) and native ESI-MS/CID; known inhibitor used as control.

Experiment [2] deals with T1, human islet amyloid polypeptide (wt hIAPP). Kind of experiment: Tyr37 fluorescence quenching and native ESI-MS (weak adduct); ThT acceleration of aggregation; no SPR response, no significant NMR CSPs.
Experiment [3] shares this target. Kind of experiment: Tyr37 fluorescence quenching titration; also native ESI-MS, SPR (Kd […]), 2D NMR CSPs and ThT aggregation inhibition.

The structures appear in SMILES notation.

Usually Kd stands for the free concentration of one partner at which half of the binding sites on the other are occupied at equilibrium, for simple one-to-one binding. Take `O=C(O[C@@H]1Cc2c(O)cc(O)cc2O[C@@H]1c1cc(O)c(O)c(O)c1)c1cc(O)c(O)c(O)c1` [EGCG]: the affinity in experiment [1], expressed as Kd, was 13 µM.
In the case of `O=C(Nc1ccccc1F)c1cnc(-c2ccccc2)nc1CCNC(=O)C1CCCCC1` [YX-A-1], the dissociation constant (Kd) in experiment [2] was approximately 280 µM.
In experiment [3], `CC(=O)N[C@H]1C[C@@H](c2ccc(NC(=O)Cn3nnc4ccccc43)cc2)O[C@@H](C(C)C)C1` [YX-I-1] yielded a Kd of 32 µM.

(Values after publication PMC8873464, “Tuning the rate of aggregation of hIAPP into amyloid using small-molecule modulators of assembly” (Nature Communications, 2022).)
